According to ChEMBL document CHEMBL4507274 (2021):

Assays:
[1] = system: Epidermal growth factor receptor (Homo sapiens), P00533 [L858R,T790M]; conditions: Compound concentration 100.0 nM
[2] = system: Epidermal growth factor receptor (Homo sapiens), P00533 [UNDEFINED MUTATION]; conditions: Compound concentration 100.0 nM
[3] = biological target: Tyrosine-protein kinase ABL2 (Homo sapiens) (UniProt P42684); test: Arg (h) Upstate kinase activity assay; conditions: Compound concentration 10.0 uM
[4] = biological target: Tyrosine-protein kinase receptor UFO (Homo sapiens) (UniProt P30530); test: Axl (h) Upstate kinase activity assay; conditions: Compound concentration 10.0 uM
[5] = biological target: Casein kinase I isoform delta (Homo sapiens) (UniProt P48730); test: CK1delta (h) Upstate kinase activity assay; conditions: Compound concentration 10.0 uM
[6] = biological target: Proto-oncogene tyrosine-protein kinase Src (Homo sapiens) (UniProt P12931); test: cSRC (h) Upstate kinase activity assay; conditions: Compound concentration 10.0 uM
[7] = biological target: Tyrosine-protein kinase Fgr (Homo sapiens) (UniProt P09769); test: Fgr (h) Upstate kinase activity assay; conditions: Compound concentration 10.0 uM
[8] = biological target: Glycogen synthase kinase-3 beta (Homo sapiens) (UniProt P49841); test: GSK3beta (h) Upstate kinase activity assay; conditions: Compound concentration 10.0 uM
[9] = biological target: Mitogen-activated protein kinase 10 (Homo sapiens) (UniProt P53779); test: JNK3 (h) Upstate kinase activity assay; conditions: Compound concentration 10.0 uM
[10] = biological target: Tyrosine-protein kinase Lck (Homo sapiens) (UniProt P06239); test: Lck (h) Upstate kinase activity assay; conditions: Compound concentration 10.0 uM
[11] = biological target: Mitogen-activated protein kinase 1 (Homo sapiens) (UniProt P28482); test: MAPK2 (h) Upstate kinase activity assay; conditions: Compound concentration 10.0 uM
[12] = biological target: MAP kinase-activated protein kinase 2 (Homo sapiens) (UniProt P49137); test: MAPKAP-K2 (h) Upstate kinase activity assay; conditions: Compound concentration 10.0 uM
[13] = biological target: Hepatocyte growth factor receptor (Homo sapiens) (UniProt P08581); test: Met (h) Upstate kinase activity assay; conditions: Compound concentration 10.0 uM
[14] = biological target: T1, Dual specificity mitogen-activated protein kinase kinase 7 (Homo sapiens) (UniProt O14733); test: MKK7βbeta(h) Upstate kinase activity assay; conditions: Compound concentration 10.0 uM
T1 sequence (whole entry): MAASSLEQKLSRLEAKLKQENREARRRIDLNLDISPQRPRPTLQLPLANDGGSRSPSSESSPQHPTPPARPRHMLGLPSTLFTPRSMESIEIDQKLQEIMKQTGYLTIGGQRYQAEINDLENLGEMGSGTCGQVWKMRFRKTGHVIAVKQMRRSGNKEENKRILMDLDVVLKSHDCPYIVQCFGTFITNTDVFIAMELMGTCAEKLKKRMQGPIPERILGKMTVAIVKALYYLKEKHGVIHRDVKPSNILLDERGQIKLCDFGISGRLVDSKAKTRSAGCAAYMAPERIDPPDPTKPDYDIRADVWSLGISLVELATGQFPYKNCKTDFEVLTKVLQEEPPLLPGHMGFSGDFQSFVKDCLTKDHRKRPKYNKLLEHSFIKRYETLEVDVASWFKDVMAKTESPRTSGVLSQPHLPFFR

[15] = biological target: RAC-beta serine/threonine-protein kinase (Homo sapiens) (UniProt P31751); test: PKBbeta (h) Upstate kinase activity assay; conditions: Compound concentration 10.0 uM
[16] = biological target: Serine/threonine-protein kinase N2 (Homo sapiens) (UniProt Q16513); test: PRK2 (h) Upstate kinase activity assay; conditions: Compound concentration 10.0 uM
[17] = biological target: T2, Serine/threonine-protein kinase Sgk1 (Homo sapiens) (UniProt O00141); test: SGK (h) Upstate kinase activity assay; conditions: Compound concentration 10.0 uM
T2 sequence (whole entry): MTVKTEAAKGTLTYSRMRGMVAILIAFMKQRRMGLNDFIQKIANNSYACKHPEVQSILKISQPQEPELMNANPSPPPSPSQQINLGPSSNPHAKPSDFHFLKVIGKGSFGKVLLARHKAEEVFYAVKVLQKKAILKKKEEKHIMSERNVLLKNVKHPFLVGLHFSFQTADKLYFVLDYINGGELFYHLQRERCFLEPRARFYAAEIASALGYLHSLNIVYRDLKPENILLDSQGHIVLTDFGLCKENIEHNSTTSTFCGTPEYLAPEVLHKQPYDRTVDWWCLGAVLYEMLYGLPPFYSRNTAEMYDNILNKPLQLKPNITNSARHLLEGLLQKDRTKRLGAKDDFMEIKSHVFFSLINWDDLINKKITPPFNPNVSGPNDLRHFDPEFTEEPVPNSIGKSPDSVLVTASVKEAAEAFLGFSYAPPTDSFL

[18] = biological target: Angiopoietin-1 receptor (Homo sapiens) (UniProt Q02763); test: Tie2 (h) Upstate kinase activity assay; conditions: Compound concentration 10.0 uM
[19] = Melanoma B16-FO cell line MDS Pharma Services Proliferation Assay; format: functional, cell-based
[20] = system: SK-N-MC; test: Neuroepithelioma SK-N-MC cell line MDS Pharma Services Proliferation Assay; format: functional, cell-based, Homo sapiens
[21] = system: MIA PaCa-2; test: Pancreas MIA PaCa-2 cell line MDS Pharma Services Proliferation Assay; format: functional, cell-based, Homo sapiens
[22] = system: A-431; test: Skin A431 cell line MDS Pharma Services Proliferation Assay; format: functional, cell-based, Homo sapiens
[23] = species: Rattus norvegicus; conditions: Compound concentration 10.0 uM
[24] = biological target: Tyrosine-protein kinase Blk (Mus musculus) (UniProt P16277); test: Blk (m) Upstate kinase activity assay; conditions: Compound concentration 10.0 uM
Sequence of Tyrosine-protein kinase Blk (Mus musculus) (P16277 whole entry, looked up): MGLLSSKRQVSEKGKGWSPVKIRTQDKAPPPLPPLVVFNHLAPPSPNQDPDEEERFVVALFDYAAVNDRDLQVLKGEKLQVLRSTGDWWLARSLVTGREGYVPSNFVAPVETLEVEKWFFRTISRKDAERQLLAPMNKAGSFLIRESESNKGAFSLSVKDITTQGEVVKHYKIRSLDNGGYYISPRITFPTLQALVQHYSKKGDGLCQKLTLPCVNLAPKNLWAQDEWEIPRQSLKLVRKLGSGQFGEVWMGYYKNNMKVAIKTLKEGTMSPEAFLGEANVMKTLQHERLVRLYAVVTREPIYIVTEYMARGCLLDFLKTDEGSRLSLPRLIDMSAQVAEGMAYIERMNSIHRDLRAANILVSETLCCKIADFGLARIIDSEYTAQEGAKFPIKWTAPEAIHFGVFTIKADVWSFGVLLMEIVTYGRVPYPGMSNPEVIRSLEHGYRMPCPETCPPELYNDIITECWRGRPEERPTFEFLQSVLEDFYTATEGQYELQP

Sequence of Hepatocyte growth factor receptor (Homo sapiens) (P08581 whole entry): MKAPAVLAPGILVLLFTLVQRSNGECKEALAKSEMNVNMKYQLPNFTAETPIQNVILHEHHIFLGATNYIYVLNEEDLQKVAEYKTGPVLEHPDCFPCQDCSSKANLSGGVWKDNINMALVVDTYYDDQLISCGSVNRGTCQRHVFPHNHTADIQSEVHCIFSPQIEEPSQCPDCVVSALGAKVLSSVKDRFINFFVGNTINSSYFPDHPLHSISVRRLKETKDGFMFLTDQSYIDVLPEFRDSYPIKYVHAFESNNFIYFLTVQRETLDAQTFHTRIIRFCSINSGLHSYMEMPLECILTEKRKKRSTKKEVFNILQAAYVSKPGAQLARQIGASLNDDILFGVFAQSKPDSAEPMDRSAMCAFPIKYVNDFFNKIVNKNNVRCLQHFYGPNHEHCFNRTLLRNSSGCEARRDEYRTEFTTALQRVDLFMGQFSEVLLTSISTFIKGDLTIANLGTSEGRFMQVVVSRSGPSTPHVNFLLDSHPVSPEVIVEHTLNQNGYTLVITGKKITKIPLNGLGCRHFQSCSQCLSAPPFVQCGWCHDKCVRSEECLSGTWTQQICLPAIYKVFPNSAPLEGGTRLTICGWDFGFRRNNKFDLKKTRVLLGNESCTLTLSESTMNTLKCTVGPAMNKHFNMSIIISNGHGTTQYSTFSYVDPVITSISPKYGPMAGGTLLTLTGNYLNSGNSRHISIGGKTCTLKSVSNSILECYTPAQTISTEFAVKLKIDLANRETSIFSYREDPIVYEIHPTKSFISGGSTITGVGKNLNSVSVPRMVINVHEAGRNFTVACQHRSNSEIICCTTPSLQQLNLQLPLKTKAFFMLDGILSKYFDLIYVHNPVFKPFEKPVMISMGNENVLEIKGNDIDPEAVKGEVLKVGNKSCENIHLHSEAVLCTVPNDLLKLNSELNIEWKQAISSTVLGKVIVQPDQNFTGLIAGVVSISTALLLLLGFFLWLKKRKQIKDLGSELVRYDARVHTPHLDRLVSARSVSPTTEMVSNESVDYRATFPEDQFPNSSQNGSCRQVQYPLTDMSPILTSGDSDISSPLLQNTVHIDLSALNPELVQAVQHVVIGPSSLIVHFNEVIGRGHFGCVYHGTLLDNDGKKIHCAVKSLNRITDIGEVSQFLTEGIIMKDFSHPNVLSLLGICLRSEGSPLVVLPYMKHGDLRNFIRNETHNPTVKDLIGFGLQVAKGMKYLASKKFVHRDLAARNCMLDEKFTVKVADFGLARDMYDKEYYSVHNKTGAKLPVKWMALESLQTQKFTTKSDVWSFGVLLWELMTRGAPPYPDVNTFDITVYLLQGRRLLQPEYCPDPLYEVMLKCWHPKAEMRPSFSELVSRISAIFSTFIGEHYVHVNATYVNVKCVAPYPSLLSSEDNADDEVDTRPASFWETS
Sequence of Mitogen-activated protein kinase 1 (Homo sapiens) (P28482 whole entry): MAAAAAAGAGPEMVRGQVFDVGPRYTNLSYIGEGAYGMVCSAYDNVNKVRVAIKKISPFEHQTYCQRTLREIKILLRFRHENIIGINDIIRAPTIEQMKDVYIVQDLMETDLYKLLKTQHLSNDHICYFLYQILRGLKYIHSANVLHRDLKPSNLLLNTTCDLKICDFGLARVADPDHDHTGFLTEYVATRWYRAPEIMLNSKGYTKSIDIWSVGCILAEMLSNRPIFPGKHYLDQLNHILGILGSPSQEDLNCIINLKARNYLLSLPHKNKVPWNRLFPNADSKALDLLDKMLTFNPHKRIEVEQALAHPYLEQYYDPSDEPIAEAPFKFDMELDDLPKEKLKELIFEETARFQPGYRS
Sequence of Tyrosine-protein kinase ABL2 (Homo sapiens) (P42684 whole entry): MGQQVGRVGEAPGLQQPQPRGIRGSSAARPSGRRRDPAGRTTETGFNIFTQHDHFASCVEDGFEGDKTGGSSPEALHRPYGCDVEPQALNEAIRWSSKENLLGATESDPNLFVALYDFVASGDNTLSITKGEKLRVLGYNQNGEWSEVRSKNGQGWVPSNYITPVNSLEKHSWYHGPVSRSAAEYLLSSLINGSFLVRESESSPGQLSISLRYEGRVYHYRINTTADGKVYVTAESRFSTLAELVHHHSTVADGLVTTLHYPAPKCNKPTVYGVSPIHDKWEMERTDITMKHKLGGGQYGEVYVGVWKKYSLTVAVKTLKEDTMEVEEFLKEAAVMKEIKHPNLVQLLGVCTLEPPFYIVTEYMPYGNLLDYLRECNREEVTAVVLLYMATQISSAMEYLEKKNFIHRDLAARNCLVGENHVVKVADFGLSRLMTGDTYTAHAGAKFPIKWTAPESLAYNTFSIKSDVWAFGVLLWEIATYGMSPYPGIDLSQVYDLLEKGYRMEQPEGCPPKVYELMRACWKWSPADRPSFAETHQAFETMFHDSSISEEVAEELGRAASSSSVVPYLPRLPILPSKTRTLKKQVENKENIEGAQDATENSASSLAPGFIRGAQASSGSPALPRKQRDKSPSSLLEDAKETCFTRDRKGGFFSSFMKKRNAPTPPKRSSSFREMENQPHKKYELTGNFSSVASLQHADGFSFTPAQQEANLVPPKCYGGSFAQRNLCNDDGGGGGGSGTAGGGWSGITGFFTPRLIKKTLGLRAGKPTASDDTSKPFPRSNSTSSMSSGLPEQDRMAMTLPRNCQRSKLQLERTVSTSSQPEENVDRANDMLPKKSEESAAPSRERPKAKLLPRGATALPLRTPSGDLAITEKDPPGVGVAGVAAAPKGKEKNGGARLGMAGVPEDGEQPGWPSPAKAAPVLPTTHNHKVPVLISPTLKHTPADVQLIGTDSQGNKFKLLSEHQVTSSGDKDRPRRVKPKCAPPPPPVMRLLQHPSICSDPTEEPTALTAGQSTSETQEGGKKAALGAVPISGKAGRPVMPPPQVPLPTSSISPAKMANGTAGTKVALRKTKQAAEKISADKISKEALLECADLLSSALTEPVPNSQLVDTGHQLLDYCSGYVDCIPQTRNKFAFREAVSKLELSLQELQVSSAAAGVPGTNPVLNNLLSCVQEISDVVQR
Sequence of RAC-beta serine/threonine-protein kinase (Homo sapiens) (P31751 whole entry): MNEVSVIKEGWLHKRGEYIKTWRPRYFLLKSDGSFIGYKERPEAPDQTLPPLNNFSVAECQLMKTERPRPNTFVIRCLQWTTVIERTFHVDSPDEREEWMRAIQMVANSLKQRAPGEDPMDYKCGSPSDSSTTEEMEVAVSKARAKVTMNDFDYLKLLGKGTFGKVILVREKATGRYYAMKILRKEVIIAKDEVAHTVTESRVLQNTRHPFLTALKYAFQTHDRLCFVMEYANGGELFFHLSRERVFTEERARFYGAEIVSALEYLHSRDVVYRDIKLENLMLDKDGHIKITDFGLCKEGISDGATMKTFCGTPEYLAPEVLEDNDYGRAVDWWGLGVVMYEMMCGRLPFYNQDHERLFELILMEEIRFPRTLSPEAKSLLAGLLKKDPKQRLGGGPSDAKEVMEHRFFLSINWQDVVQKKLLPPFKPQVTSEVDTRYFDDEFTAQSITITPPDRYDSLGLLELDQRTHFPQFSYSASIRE
Sequence of Mitogen-activated protein kinase 10 (Homo sapiens) (P53779 whole entry): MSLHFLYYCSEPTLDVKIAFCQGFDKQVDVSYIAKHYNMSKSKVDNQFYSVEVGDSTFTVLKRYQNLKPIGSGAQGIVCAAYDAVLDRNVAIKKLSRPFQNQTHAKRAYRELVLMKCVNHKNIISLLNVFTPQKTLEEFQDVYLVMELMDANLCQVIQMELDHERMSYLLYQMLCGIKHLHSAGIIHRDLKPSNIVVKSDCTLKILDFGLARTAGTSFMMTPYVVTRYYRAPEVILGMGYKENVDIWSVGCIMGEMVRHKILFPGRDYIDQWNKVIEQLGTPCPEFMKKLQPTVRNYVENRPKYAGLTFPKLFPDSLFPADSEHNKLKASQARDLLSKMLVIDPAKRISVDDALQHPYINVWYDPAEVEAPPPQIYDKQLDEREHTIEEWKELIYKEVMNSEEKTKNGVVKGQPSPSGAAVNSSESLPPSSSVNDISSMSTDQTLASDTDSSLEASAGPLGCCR
Sequence of Glycogen synthase kinase-3 beta (Homo sapiens) (P49841 whole entry, looked up): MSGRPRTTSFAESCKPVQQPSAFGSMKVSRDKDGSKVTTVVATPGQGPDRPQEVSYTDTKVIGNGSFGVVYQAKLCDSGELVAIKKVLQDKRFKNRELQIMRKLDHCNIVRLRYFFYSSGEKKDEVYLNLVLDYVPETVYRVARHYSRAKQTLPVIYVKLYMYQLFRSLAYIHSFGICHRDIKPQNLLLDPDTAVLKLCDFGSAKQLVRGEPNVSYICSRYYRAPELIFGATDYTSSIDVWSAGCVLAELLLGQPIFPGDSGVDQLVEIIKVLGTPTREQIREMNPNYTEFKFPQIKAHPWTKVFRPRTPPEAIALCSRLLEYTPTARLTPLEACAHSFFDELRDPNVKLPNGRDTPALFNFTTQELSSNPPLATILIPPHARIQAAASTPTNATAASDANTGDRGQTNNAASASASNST

Compound: Cn1cc(Cl)c2c(Oc3c(F)cc(Nc4cc(Cl)nc(N)n4)cc3F)ccnc21 [BAY-4900]
- residual activity [1]: 84%
- residual activity [2]: 52%

Compound: Cc1c[nH]c2nccc(Oc3c(F)cc(Nc4cc(Cl)nc(N)n4)cc3F)c12 [BAY-549]
- inhibition [3]: 37%
- inhibition [4]: 85%
- inhibition [5]: 65%
- inhibition [6]: -4%
- inhibition [7]: 27%
- inhibition [8]: -1%
- inhibition [9]: 8%
- inhibition [10]: 50%
- inhibition [11]: 17%
- inhibition [12]: -6%
- inhibition [13]: 82%
- inhibition [14]: 20%
- inhibition [15]: 85%
- inhibition [16]: 70%
- inhibition [17]: 76%
- inhibition [18]: 26%
- CC50 ([19]; Mus musculus, B16-F10, read-out: LC50 (the source's name)): > 100 µM
- Mean % growth (n = 2) for 1.0 µM probe concentration ([19]; ± SEM 1 % growth): 106%
- Mean % growth (n = 2) for 0.1 µM probe concentration ([19]; ± SEM 4 % growth): 94%
- Mean % growth (n = 2) for 0.01 µM probe concentration ([19]; ± SEM 5 % growth): 98%
- Mean % growth (n = 2) for 100.0 µM probe concentration ([19]; ± SEM 5 % growth): -46%
- Mean % growth (n = 2) for 10.0 µM probe concentration ([19]; ± SEM 9 % growth): 53%
- IC50 ([20]; Homo sapiens, SK-N-MC): 7.9 µM
- TGI ([20]; Homo sapiens, SK-N-MC): 20 µM
- CC50 ([20]; Homo sapiens, SK-N-MC, read-out: LC50 (the source's name)): 52 µM
- Mean % growth (n = 2) for 10.0 µM probe concentration ([20]; ± SEM 3 % growth): 38%
- Mean % growth (n = 2) for 0.1 µM probe concentration ([20]; ± SEM 4 % growth): 103%
- Mean % growth (n = 2) for 1.0 µM probe concentration ([20]; ± SEM 5 % growth): 98%
- Mean % growth (n = 2) for 0.01 µM probe concentration ([20]; ± SEM 6 % growth): 103%
- Mean % growth (n = 2) for 100.0 µM probe concentration ([20]; ± SEM 8 % growth): -72%
- Mean % growth (n = 2) for 10.0 µM probe concentration [21]: 45%
- IC50 ([21]; Homo sapiens, MIA PaCa-2): 8.9 µM
- TGI ([21]; Homo sapiens, MIA PaCa-2): 48 µM
- CC50 ([21]; Homo sapiens, MIA PaCa-2, read-out: LC50 (the source's name)): > 100 µM
- Mean % growth (n = 2) for 0.1 µM probe concentration ([21]; ± SEM 1 % growth): 98%
- Mean % growth (n = 2) for 0.01 µM probe concentration ([21]; ± SEM 3 % growth): 95%
- Mean % growth (n = 2) for 1.0 µM probe concentration ([21]; ± SEM 3 % growth): 88%
- Mean % growth (n = 2) for 100.0 µM probe concentration ([21]; ± SEM 5 % growth): -23%
- IC50 ([22]; Homo sapiens, A-431): 5.5 µM
- TGI ([22]; Homo sapiens, A-431): 31 µM
- CC50 ([22]; Homo sapiens, A-431, read-out: LC50 (the source's name)): > 100 µM
- Mean % growth (n = 2) for 1.0 µM probe concentration ([22]; ± SEM 3 % growth): 77%
- Mean % growth (n = 2) for 10.0 µM probe concentration ([22]; ± SEM 3 % growth): 35%
- Mean % growth (n = 2) for 100.0 µM probe concentration ([22]; ± SEM 5 % growth): -36%
- Mean % growth (n = 2) for 0.1 µM probe concentration ([22]; ± SEM 6 % growth): 103%
- Mean % growth (n = 2) for 0.01 µM probe concentration ([22]; ± SEM 9 % growth): 92%
- inhibition [23]: 24.9%
- inhibition [24]: 16%
